Patent US20080045482A1, “COMPOSITIONS AND METHODS FOR THE TREATMENT OF VIRAL INFECTIONS” (priority 2006, published 2008)
Several values for one entry are separate records, joined by “and”; a condition that tells them apart may be missing. Identical values can stand only once.

What was measured:
[1] = test system: A/California/2935/03 (H1N1); type: cell-based, human influenza A virus
[2] = test system: Punta Torro Virus (strain Adames); details: in words
[3] = test system: Venezuelan Equine Encephalitis Virus (VEE, Trinidad strain)
HIV-2 = details: HIV-2, in words
[4] = test system: A/Duck/Penn/10218/84 (H5N2); type: cell-based, avian influenza A virus
[5] = test system: Vaccinia Virus (strain WR); details: in words
[6] = test system: A/Equine1/Prague/1/56 (H3N8); type: cell-based, equine influenza A virus
[7] = test system: Herpes Simplex Virus-1 (HSV-1); details: HSV-1, in words
[8] = test system: Pichinde Virus (strain 4763); details: Pichinde Virus strain 4763, in words
[9] = test system: West Nile Virus (WNV, strain New York); details: in words
[10] = test system: A/NorthDakota/2463/03 (H3N2); type: cell-based, human influenza A virus
[11] = test system: Human Immunodeficiency Virus-1 (HIV-1); details: HIV-1, in words
[12] = test system: Yellow Fever Virus (17D strain)
HSV-2 = details: HSV-2, in words
[13] = test system: Adenovirus type-1 (AdV-1, strain 65089); details: AdV-1, strain 65089, in words
B/1060/03 = type: cell-based, human influenza B virus
pH in water = type: physicochemical
Aqueous solubility = details: 37° C. in distilled water
[14] = test system: viral strains from avian, human and equine influenza; type: cell-based, influenza virus; details: read-out: IC90 concentrations

O=C(O)P(O)(O)=S [TPFA, thiophosphonoformic acid]
inhibitory activity [1]: has inhibitory activity | inhibitory activity [2]: does not have inhibitory activity | inhibitory activity [3]: does not have inhibitory activity | inhibitory activity (HIV-2): has inhibitory activity | inhibitory activity [4]: has inhibitory activity | inhibitory activity [5]: does not have inhibitory activity | inhibitory activity [6]: has inhibitory activity | inhibitory activity [7]: has inhibitory activity | inhibitory activity [8]: does not have inhibitory activity | inhibitory activity [9]: does not have inhibitory activity | inhibitory activity [10]: has inhibitory activity | inhibitory activity [11]: has inhibitory activity | inhibitory activity [12]: does not have inhibitory activity | inhibitory activity (HSV-2): has inhibitory activity | metabolism (Metabolism in the body): metabolized to phosphonoformic acid and thiophosphonic acid | inhibitory activity [13]: does not have inhibitory activity

O=C(O)P(O)(O)=S [Thiovir]
IC50 [1]: 38 µM | IC50 [4]: 32 µM | IC50 (B/1060/03): 92 µM | IC50 [6]: 55 µM | pH in water (pH in water): approximately 9 | IC50 [10]: 29 µM | aqueous solubility (Aqueous solubility): 40.8 g/100 mL | IC90 [14]: < 250 µM and ~200 µM
